We go through five compounds from patent US20140025310A1, “METHOD FOR DETERMINING THE EFFICACY OF A COMBINATION THERAPY” (priority 2009, published 2014).

One assay deals with patient's virus. Description: Susceptibility score of the patient's virus to a drug (% activity from clinical cut-off models). Set-up: species or system HIV-1. The note with it: 1 = fully sensitive, 0 = fully resistant. The source says:
Interpretation algorithms provide a resistance call for each available HIV drug. Often this is a three way classification i.e. sensitive (a score of 1), intermediate resistant (a score of 0.5) or resistant (a score of 0). For VircoType (WO 01/79540) the interpretation is for instance based on a statistical model, leading to the definition of so called clinical cut-offs (CCO), that predicts the % activity of a drug (i.e. the susceptibility score) as a function of fold change at the start of the regimen. The % activity left was calculated by dividing the predicted viral load change for the patients' virus with a certain resistance profile by the predicted viral load for a wild-type virus. This is an ordinal value that varies between 0% (or a score of 0) and 100% (or a score of 1). Based on these values, clinical cutoffs (phenotypic threshold values) were derived to classify a virus sample into maximal response, reduced response and minimal response as described in WO 2005/086061.
(§1) Therefore, statistical models were applied to handle these differences. […] E.g.

The subject of another assay is HIV-1. The note with it: difference in viral load response (log scale) vs ritonavir boosted lopinavir after 8 weeks of stable treatment; double robust estimation.
Source text: as §1

In the assay on patient's virus (Patient 1 virus), `O=c1[nH]cnc2c1ncn2[C@H]1CC[C@@H](CO)O1` [DDI] came in with a susceptibility score of 1.

As to `O=C1Nc2ccc(Cl)cc2[C@@](C#CC2CC2)(C(F)(F)F)O1` [EFV], in the assay on patient's virus (Patient 2 virus), the susceptibility score entry is “fully active”. As to `CC(C)OC(=O)OCOP(=O)(CO[C@H](C)Cn1cnc2c(N)ncnc21)OCOC(=O)OC(C)C.O=C(O)/C=C/C(=O)O` [TDF], the susceptibility score with patient's virus (Patient 1 virus) and in the assay on patient's virus (Patient 2 virus) was 1 throughout. Take atazanavir [ATV/r]: in the assay with HIV-1, the “Weight (drug weight)” value was −0.02. Moreover, the susceptibility score with patient's virus (Patient 2 virus) worked out at 1. As to lopinavir [LPV/r], the “Weight (drug weight)” value in the assay with HIV-1 is recorded as 0. The compound further showed a susceptibility score with patient's virus (Patient 1 virus) of 0.24.
